Consider twelve compounds from patent US4640916A, “1,4-benzothiazine derivatives, compositions containing them and method of use” (priority 1984, dated 1987).

Where a name gives a salt, the structure may show the parent alone. Read-outs that look alike come from different tables or passages of the source.

The subject of data set [1] is contraction depending on intracellular Ca^++. Briefly: Intracellular Ca++ antagonism: inhibition of phenylephrine contraction of aorta strip in Ca++-free EGTA solution. The data set is classed as cell-based, rabbit. The settings on record: Oryctolagus cuniculus; compound 10^-6 M; phenylephrine 10^-6 M; Ca++ 0 mM, EGTA 5 mM; read-out: Inhibitory percent (contraction depending on intracellular Ca++). As for the experimental part: A spiral strip of aorta of a rabbit (2-3 mm width, about 3 cm length) was allowed to equilibrate by hanging under 2 g force in a Krebs-Henseleit solution. The solution was saturated with a mixture gas 97% O2 --3% CO2, which was warmed to 37° C. The strip was moved into another Krebs-Henseleit solution containing Ca^++ OmM and EGTA 5 mM. Five minutes later, phenylephrine (10^-6 M) was added on the solution. The resulting contraction of the strip was made as the index of the contraction depending on intracellular Ca^++.

The subject of data set [2] is contraction of the aorta strip caused by KCl. Kind of data set: Vasodilating action: inhibition of contraction of rabbit aorta strip caused by KCl. The data set is classed as cell-based. The settings on record: Oryctolagus cuniculus, compound 10^-5 M, KCl 60 mM, 15 min pretreatment, read-out: Inhibitory percent against contraction, KCl. As to the method:
(§1) A spiral strip of aorta of a rabbit (2-3 mm width, about 3 cm length) was allowed to equilibrate by hanging under 2 g force in a Krebs-Henseleit solution. The solution was saturated with a mixture gas of 97% O2 --3% CO2 which was warmed to 37° C. Inhibitory actions of compounds (10^-5 M) of this invention against contraction of the aorta strip caused by KCl (60 mM), norepinephrine (NE) (10^-6 M) or serotonin (5--HT) (10^-6 M), by treating the strip with a compound of this invention 15 minutes before the test, are shown in Table 1 as inhibitory percent.

The test system of data set [3] is contraction of the aorta strip caused by norepinephrine (NE). Briefly: Vasodilating action: inhibition of contraction of rabbit aorta strip caused by norepinephrine (NE). The settings on record: Oryctolagus cuniculus, compound 10^-5 M, NE 10^-6 M, 15 min pretreatment, read-out: Inhibitory percent against contraction, NE. The data set is classed as cell-based. As to the method: as §1

Data set [4] concerns contraction of the aorta strip caused by serotonin (5--HT). Kind of data set: Vasodilating action: inhibition of contraction of rabbit aorta strip caused by serotonin (5-HT). The data set is classed as cell-based. The settings on record: Oryctolagus cuniculus, compound 10^-5 M, 5-HT 10^-6 M, 15 min pretreatment, read-out: Inhibitory percent against contraction, 5-HT. As to the method: as §1

For data set [5], the system named is spontaneously hypertensive rats. Briefly: Antihypertensive action in spontaneously hypertensive rats (tail-cuff). The data set is classed as in vivo. The settings on record: 1 h after administration. As for the experimental part:
Male 12 to 13 weeks old spontaneously hypertensive rats with about 200 mm Hg of blood pressure were used in groups of 3 individuals. Mean arterial blood pressures of these animals were measured by the tail-cuff method, then the animals were orally given 3-60 mg/kg of each test compound of this invention as 2 ml of its suspension in gum arabic. Blood pressure measurements were made again one hour after administration of each test compound.

The next data set concerns intracellular Ca^++. The settings on record: (2) Ca++ from intracellular store site; (3) Ca++ through receptor-dependent channel; cited from earlier work.
In data set [6] the test system is ischemic acute renal failure in rats. Kind of data set: Effect on the ischemic acute renal failure in rats. The data set is classed as in vivo, Sprague-Dawley rats. The settings on record: for Plasma urea nitrogen (BUN): p.o., 24 h after reperfusion; for Effect on the increase in BUN (in words): Ex. 48 at 10 mg/kg, Ex. 46 at 1 and 3 mg/kg. As for the experimental part: The left renal artery of male Sprague-Dawley rats, 6 week old, was clamped for 1 hour under anesthesia with sodium pentobarbital (50 mg/kg, i.p.). The compounds or water was orally given 1 hour before the occlusion. The compounds were again given 20 hour after the reperfusion of the blood. Twenty four hour after the reperfusion, the blood was obtained from the abdominal aorta under anesthesia for measurement of plasma urea nitrogen (BUN).

Data set [7] concerns ischemic seizure induced by bilateral carotid artery occlusion. Kind of data set: Effect on the ischemic seizure induced by bilateral carotid artery occlusion in spontaneously hypertensive rats. The settings on record: p.o.; for Time toward ischemic seizure: 1 h before occlusion; for Effect on time of the beginning of the ischemic seizure (in words): Ex. 48 at 1, 3 and 10 mg/kg, Ex. 46 at 0.3, 1 and 3 mg/kg. The data set is classed as in vivo. As for the experimental part:
Male spontaneously hypertensive rats, 20 to 22 week old, were orally given the compounds or tap water at a volume of 5 ml/kg. After 1 hour, the carotid artery was bilaterally occluded by use of silk thread under anesthesia with sodium pentobarbital (50 mg/kg, i.p.). The length of time until the ischemic seizure such as convulsion and jumping was observed was measured, immediately after the occlusion of carotid artery.

In data set [8] the test system is ischemia-reperfusion-induced ventricular arrythmia in rats. Briefly: Effect on the ischemia-reperfusion-induced ventricular arrhythmia in rats. The data set is classed as in vivo, Sprague-Dawley rats. The settings on record: p.o.; for Incidence of cardiac arrest (CA), rats affected/rats used / Incidence of ventricular fibrillation (VF), rats affected/rats used / Incidence of ventricular tachycardia (VT), rats affected/rats used: 10 min after reperfusion; for Effect on incidences of VT, VF and CA (in words): Ex. 48 at 1, 3 and 10 mg/kg, Ex. 46 at 0.3, 1, 3 and 10 mg/kg. As to the method: Male Sprague-Dawley rats, 9 to 10 week old, were orally given the compounds or tap water at a volume of 5 ml/kg. After 1 hour, rats were anesthetized with sodium pentobarbital (50 mg/kg, i.p.), and left anterior descending coronary artery was occluded for 5 min. with a silk thread under ventilation. The incidences of ventricular tachycardia (VT), ventricular fibrilation (VF) and cardiac arrest (CA) occurred for 10 min. after reperfusion of the blood were calculated.

For data set [9] the following is noted: in vivo; cited from earlier work.
[10] abbreviates: 3 mg/kg, control 20.3 ± 0.6 (Ex. 48), 25.1 ± 0.8 (Ex. 46).
The mark [11] stands for this setting: 1 mg/kg, control 139 ± 9 (Ex. 48), 150 ± 6 (Ex. 46).
[12] abbreviates: 3 mg/kg, control 152 ± 14 (Ex. 48), 150 ± 6 (Ex. 46).

`Cc1cc(C)c2c(c1)SC(CCCN1CCN(c3ccc(F)cc3)CC1)C(=O)N2` (centres unmarked) [Example 11]: the inhibition at 1 µM in data set [1] came to 97%. The inhibition at 10 µM in data set [2] came to 70%; in [3], 95%; in [4], 67%. For the same compound, the “Antihypertensive effect (difference of blood pressure before and after medication)” value in data set [5] (30 mg/Kg oral) is listed as 49 ΔmmHg.
With `NCCCCCCNS(=O)(=O)c1cccc2c(Cl)cccc12` [Example W-7], the “Action on intracellular Ca++ (in words)” value in the data set with intracellular Ca^++ is listed as “weak in their action”.
Regarding `Cc1cccc2c1NC(=O)C(CCCN1CCN(c3ccc(F)cc3)CC1)S2` (centres unmarked) [Example 48, 2-[3-[4-(4-fluorophenyl)-1-piperazinyl]propyl]-5-methyl-2H-1,4-benzothiazin-3(4H)-one], the “Plasma urea nitrogen (BUN)” value was 18.9 ± 0.6 mg/dL in data set [6] (setting [10]) and 16.9 ± 0.7 mg/dL in data set [6] (10 mg/kg, control 22.8 ± 1.0). In addition, the “Effect on the increase in BUN (in words)” value in data set [6] is listed as “inhibited the increase in BUN”. Also, the “Time toward ischemic seizure” value amounted to 167 ± 8 min in data set [7] (setting [11]); 214 ± 22 min in data set [7] (setting [12]); 275 ± 22 min in data set [7] (10 mg/kg, control 132 ± 14). Moreover, the “Effect on time of the beginning of the ischemic seizure (in words)” value in [7] is on record as “prolonged the time of the beginning of the ischematic seizure in a dose-dependent manner”. The entries for the “Incidence of cardiac arrest (CA), rats affected/rats used” value in data set [8] (1 mg/kg), in data set [8] (3 mg/kg) and in [8] (10 mg/kg) were 3/10, 1/9 and 0/6, respectively. Moreover, the “Incidence of ventricular fibrillation (VF), rats affected/rats used” value was 5/10 in data set [8] (1 mg/kg), 3/9 in [8] (3 mg/kg) and 1/6 in data set [8] (10 mg/kg). The “Incidence of ventricular tachycardia (VT), rats affected/rats used” value was 7/10 in data set [8] (1 mg/kg), 4/9 in data set [8] (3 mg/kg) and 1/6 in data set [8] (10 mg/kg). In data set [8], the “Effect on incidences of VT, VF and CA (in words)” value is “inhibited the incidences of VT, VF and CA in a dose-dependent manner”.
On to `COc1cc2nc(N3CCN(C(=O)c4ccco4)CC3)nc(N)c2cc1OC` [prazosin], for which the “Side effects of known drugs (in words)” value in data set [9] is “orthostatic hypotension often observed”.
`Cc1cc2c(cc1C)SC(CCCN1CCN(c3ccc(F)cc3)CC1)C(=O)N2` (centres unmarked) [Example 1, 2-[3-[4-(4-fluorophenyl)-1-piperazinyl]propyl]-6,7-dimethyl-2H-1,4-benzothiazin-3(4H)-one]: the inhibition at 1 µM in data set [1] was 66%. Besides, the values for the inhibition at 10 µM in data set [2] and in data set [3] (0.25 h) were 50% and 100%, respectively. In data set [5] (30 mg/Kg oral), the “Antihypertensive effect (difference of blood pressure before and after medication)” value was 35 ΔmmHg.
For `O=C1Nc2cc3c(cc2SC1CCCN1CCN(c2ccc(F)cc2)CC1)CCC3` (centres unmarked) [Example 46, 6,7-cyclopenteno-2-[3-[4-(4-fluorophenyl)-1-piperazinyl]propyl]-2H-1,4-benzothiazin-3(4H)-one.hydrochloride], the “Plasma urea nitrogen (BUN)” value in [6] (1 mg/kg, control 20.4 ± 0.4) came to 18.0 ± 0.7 mg/dL; in [6] (setting [10]), 19.6 ± 0.8 mg/dL. Moreover, the “Effect on the increase in BUN (in words)” value in data set [6] is “inhibited the increase in BUN”. Also, the “Time toward ischemic seizure” value in data set [7] (0.1 mg/kg, control 153 ± 8) came out at 167 ± 13 min; in [7] (0.3 mg/kg, control 143 ± 7), 190 ± 11 min; in [7] (setting [11]) it was 217 ± 11 min; in [7] (setting [12]), 279 ± 18 min. In [7], the “Effect on time of the beginning of the ischemic seizure (in words)” value is reported as “prolonged the time of the beginning of the ischematic seizure in a dose-dependent manner”. In addition, the “Incidence of cardiac arrest (CA), rats affected/rats used” value in data set [8] (0.3 mg/kg) is 9/19; in data set [8] (1 mg/kg), 0/12; in data set [8] (3 mg/kg), 0/12; in data set [8] (10 mg/kg), 0/4. In addition, the “Incidence of ventricular fibrillation (VF), rats affected/rats used” value in data set [8] (0.3 mg/kg) is listed as 9/19; in data set [8] (1 mg/kg), 5/12; in [8] (3 mg/kg) it was 2/12; in data set [8] (10 mg/kg), 1/4. Also, the “Incidence of ventricular tachycardia (VT), rats affected/rats used” value in data set [8] (0.3 mg/kg) is 12/19; in data set [8] (1 mg/kg) it was 7/12; in [8] (3 mg/kg), 5/12; in [8] (10 mg/kg), 1/4. In [8], the “Effect on incidences of VT, VF and CA (in words)” value was “inhibited the incidences of VT, VF and CA in a dose-dependent manner”. Further, the “Antihypertensive effect (difference of blood pressure before and after medication)” value in [5] (3 mg/Kg oral) was 33 ΔmmHg.
With `Cc1cccc2c1NC(=O)C(CCCN1CCN(c3ccc(F)cc3)CC1)S2` (centres unmarked) [Example 12, 2-[3-[4-(4-fluorophenyl)-1-piperazinyl]propyl]-5-methyl-2H-1,4-benzothiazin-3(4H)-one], the inhibition at 1 µM in [1] is 100%. The inhibition at 10 µM is 41% in data set [2], 100% in data set [3] (0.25 h) and 96% in [4]. In addition, the “Antihypertensive effect (difference of blood pressure before and after medication)” value in data set [5] (60 mg/Kg oral) is on record as 49 ΔmmHg.
For `Cc1cccc2c1NC(=O)C(CCCN1CCN(c3cccc(Cl)c3)CC1)S2` (centres unmarked) [Example 14], the inhibition at 1 µM in [1] was found to be 100%. The inhibition at 10 µM in [2] was determined as 50%; in [3] it was 100%. For the same compound, in [5] (30 mg/Kg oral), the “Antihypertensive effect (difference of blood pressure before and after medication)” value was 26 ΔmmHg.
As for `CN1CCN(CCCN2c3ccccc3Sc3ccc(C(F)(F)F)cc32)CC1` [trifluoperazine], the “Side effects of known drugs (in words)” value in [9] is “side effects e.g. on the central nervous system”. In addition, the “Action on intracellular Ca++ (in words)” value in the data set with intracellular Ca^++ is reported as “showing antagonism against intracellular Ca^++”.
For `COC(=O)C1=C(C)NC(C)=C(C(=O)OC)C1c1ccccc1[N+](=O)[O-]` [nifedipine], in the data set with intracellular Ca^++, the “Action on intracellular Ca++ (in words)” value is “hardly acts on (2) and (3)”.
`COc1ccccc1N1CCN(CCCC2Sc3cc(C)cc(C)c3NC2=O)CC1` (centres unmarked) [Example 22]: in data set [1], the inhibition at 1 µM stood at 100%. Further, the inhibition at 10 µM in [2] came to 62%; in data set [3] it was 100%; in [4], 15%. Further, in data set [5] (30 mg/Kg oral), the “Antihypertensive effect (difference of blood pressure before and after medication)” value is listed as 39 ΔmmHg.
Take `Cc1cccc2c1NC(=O)C(CCCN1CCN(c3ccc(Cl)cc3)CC1)S2` (centres unmarked) [Example 15]: the inhibition at 1 µM in data set [1] is 30%. In addition, the inhibition at 10 µM is 40% in data set [2], 100% in [3] and 20% in data set [4].
